Entries after “also recorded” stand apart in the source; their conditions may differ. Counter-ions that a name gives are not always drawn.
Columns and labels:
[1] = MTT detection of cell viability; assay type: cell-based, human; conditions: human, SH-SY5Y cells, 200 μmol ·L^−1, 48 h
Experimental: (§1) SH-SY5Y cells were inoculated into a 96-well plate. […] After 48 h of incubation at 6 wells per concentration, MTT was added for 4 h. Then incubation was stopped, the liquid was discarded, and dimethyl sulfoxide was added. After horizontal shakening for 5 min, the absorbance at 490 nm was measured using an enzyme-linked immunosorbent assay (Elisa) reader ([Yang et al., 2018]).

[2] = test system: SH-SY5Y cells; test: MTT detection of cell viability; assay type: cell-based, human; conditions: 48 h
Experimental: as §1

[3] = test system: MA-induced CPP effect; test: MA-dependent rat conditioned place preference (CPP) model; assay type: in vivo, Sprague-Dawley (SD) rats; conditions: vs MA model group, GTS 11.00 g crude drug/kg i.p., MK-801 10 mg/kg i.p.
Experimental: Male Sprague-Dawley (SD) rats weighing 180–220 g (2 months old) were provided by the Experimental Animal Center of Southern Medical University. The rats were maintained at room temperature (20 ± 2) °C, humidity (60 ± 5)%, 12 h light cycles, and provided an ad libitum diet. Before commencing the experiment, the rats were allowed to acclimatize for a minimum of 3 days. The Southern Medical University Experimental Animal Ethics Committee approved all animal experiments, which were conducted in accordance with the National Institutes of Health Guide for the Care and Use of Laboratory Animals (NIH publication #85–23, revised 1985). […] An MA-dependent rat CPP model was established in our previous studies and MA was used at 2 mg/kg ([Li et al., 2018b]). […] Before administration, determine the dosing volume based on each rat’s body weight; for example, a 200 g rat would receive a 1 mL dose.
Given the scarcity and specificity of […], we decided to use a 4x equivalent dose of GTS as the therapeutic dose. Thus, in the current study, only one treatment dose group of GTS was selected.
The CPP exam was made up of three phases over the course of 10 days (Figure 5A). During the habituation phase (days 1–3), each rat was allowed to move freely firom the black to white compartment for 30 min each day. On day 3, rats were videotaped throughout a 15-min trial and their movement trajectories, time spent and total movement distances were recorded. The door was closed to keep the two compartments apart during the conditioning period (on days 4–9). […] Rats were given the same amount of physiological saline (s.c.) in each group after an 8-h break, and they were then promptly segregated into the black compartment for 1 h. […] At 0:00 a.m. on day 10 (testing phase), the formal CPP testing began, rats were videotaped throughout a 15-min trial using Noldus Ethovision XT 8.5 software, and their movement trajectories, time spent and total movement distances were recorded.

[4] = test system: pyramidal cells in hippocampal CA1; test: HE staining of rat hippocampal CA1 after CPP test; assay type: in vivo, Sprague-Dawley (SD) rats; conditions: vs MA model group
Text: After the CPP test, a cervical dislocation method was used to euthanize the rats. The brain tissue of each rat was cut along the midline of the sagittal plane in the head. […] The hippocampus consists of CA1, CA2, CA3, and CA4. Specifically, CA1 is mainly composed of […], and is more suitable for MA-dependent observation ([Zhong et al., 2012]). Therefore, the pyramidal cells in hippocampal CA1 were mainly observed after hematoxylin-eosin (HE) staining. The hippocampal CA1 after HE staining was observed under microscopy and then photographed.

[5] = test system: cAMP; test: Elisa detection of cAMP in MA-induced SH-SY5Y cells; assay type: cell-based, human; conditions: vs MA model group (100 μmol ·L^−1 MA, 48 h); 4x equivalent dose GTS-containing serum, MK-801 100 μmol ·L^−1
Experimental: (§2) An equal volume of the complete culture medium was added to the control group. The drug-containing culture medium (100 μmol ·L^−1 MA) was added to MA model group. […] After medication, all groups were continued for 48 h, photographed, and used for the next experiment.
(§3) The above SH-SY5Y cells were inoculated onto a 6-well plate, and cultured for 24 h. Then the culture medium was aspirated. The cells were rinsed with phosphate buffered salt (PBS) once. After PBS was removed, a hydrochloric acid solution was added. The cells were scraped to form cell suspension. After centrifugation, the supernatant was extracted, and the cAMP and 5-HT levels of the cells were detected according to the instructions of an Elisa reagent kit (Dakewei Biotechnology Co., Ltd.) ([Zhan et al., 2022]).

[6] = test system: 5-HT; test: Elisa detection of 5-HT in MA-induced SH-SY5Y cells; assay type: cell-based, human; conditions: vs MA model group (100 μmol ·L^−1 MA, 48 h); 4x equivalent dose GTS-containing serum, MK-801 100 μmol ·L^−1
Experimental: as §2, §3

[7] = Pharmacokinetics and brain tissue distribution after gavage of GTS (UPLC-MS); assay type: in vivo, Babl/c mice; conditions: mice
Experimental: Animal experiments: Babl/c mice weighing 18–22 g (6–8 weeks old) with equal numbers of males and females, were provided by the Experimental Animal Center of Southern Medical University. The mice were maintained at room temperature (20 ± 2) °C, humidity (60 ± 5)%, 12 h light cycles, and provided an ad libitum diet. Thirty mice were randomly divided into 0.5, 2, 4, 6 and 9 h groups, with 6 mice each. An infusion at concentration of 2.75 g of GTS crude drug/mL was obtained, and the drug was administered by gavage at a dose of 2 mL GTS infusion drug/kg. After 0.5, 2, 4, 6 and 9 h of administration, the plasma and brain tissues in the 0.5, 2, 4, 6 and 9 h groups were collected. The plasma and brain tissue samples were processed in accordance with biological sample processing procedures.
Establishment of UPLC-MS method: An LCMS-8050 liquid chromatography mass spectrometer (Shimadzu, Japan) was operated with a horizon C18 column (100 × 2.1 mm, 3 µm). The mobile phase was 0.1% formic acid in water (A) - acetonitrile (B), and the gradient elution was 0–8 min, 10%–50% B; 8–9 min, 50%–10% B; 9–11 min, 10% B. The column temperature was 30°C, the injection volume was 5 μL, and flow rate was 0.4 mL min^−1. The mass spectrometry conditions included HPLC-MS/MS in […] full-scan and sub-ion scanning modes, an electrospray ionization source (ESI), positive and negative ion mode detection, and nebulizing gas of nitrogen (N2). The zeroed gas flow rate was 3 L min^−1, desolventization temperature was 526°C, and DL temperature was 250°C. Then the parent ion, daughter ion, collision energy, and polarity of the above components were determined (Table 2).

[8] = design: method as in Ru et al., 2014; conditions: obtained from TCMSP database; ref Ru et al., 2014; cited from earlier work
[9] = after oral administration of GTS
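Wherever BBB (blood–brain–barrier) is given: unitless TCMSP predicted score with screening cut-off BBB at least 0.3.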

## CN[C@@H](C)Cc1ccccc1 [MA, Methamphetamine hydrochloride]
[1]
  viability at 48 h, 200 μmol·L^−1: < 90%
[2]
  maximum safe dose: 100 µmol/L

## C[C@]12N[C@H](Cc3ccccc31)c1ccccc12 [MK-801, Dizocilpine]
[3]; once daily days 5–9
  movement trajectory in CPP box after MA training: significantly decreased
[3]; n = 10
  time spent in the white box after MA training: same trend as GTS treatment group
  total movement distances in the white box after MA training: same trend as GTS treatment group
[4]
  damage of pyramidal cells in hippocampal CA1 (HE staining): significantly reduced damage
[5]
  level of cAMP in SH-SY5Y cells: same trend as GTS treatment group
[6]
  level of 5-HT in SH-SY5Y cells: same trend as GTS treatment group

## CC[C@H]1CN2CC[C@]3(C(=O)Nc4ccccc43)[C@@H]2C[C@@H]1/C(=C\OC)C(=O)OC [Rhynchophylline]
[7]; [9]
  exposure in plasma and brain: exposed in the plasma and brain; also recorded: absorbed into the bloodstream and distributed to brain tissues
[7]; gavage of GTS infusion (2.75 g crude drug/mL, 2 mL/kg), sampling 0.5, 2, 4, 6, 9 h
  time at which concentration in brain peaked: 6 h
[8]
  BBB (blood–brain–barrier): 0.38
  OB% (oral bioavailability): 41.82%

## CC1(C)[C@@H](O[C@H]2O[C@H](C(=O)O)[C@@H](O)[C@H](O)[C@H]2O[C@@H]2O[C@H](C(=O)O)[C@@H](O)[C@H](O)[C@H]2O)CC[C@]2(C)[C@H]3C(=O)C=C4[C@@H]5C[C@@](C)(C(=O)O)CC[C@]5(C)CC[C@@]4(C)[C@]3(C)CC[C@@H]12 [Glycyrrhizic acid]
[7]; [9]
  detection in brain tissues: undetectable
  detection in plasma: detectable in plasma and at high levels
[8]
  BBB (blood–brain–barrier): 0.80
  OB% (oral bioavailability): 30.70%
